From patent US20050008896A1, “Luminous organic compound and manufacturing method” (Orient Chemical Ind., Ltd., priority 2003, published 2005)
Read-outs that look alike come from different tables or passages of the source.

Key:
[1] = Fluorescence (photoluminescence) intensity in ethanol, fluorescence spectrophotometer RF-5300PC; format: physicochemical; conditions: for Fluorescence Intensity / center of Luminous Wave: 25 mg of compound in 100 ml of ethanol; for Relative Value of Fluorescence Intensity, Relative Value (2) (Related to Metal Complex Intermediate 3): metal complex intermediate 3 regarded as 1.00
Experimental: Fluorescence intensity of each obtained compound was measured in order to evaluate fluorescence property.
A method of the evaluation is as follows. 25 mg of each compound was dissolved in 100 ml of ethanol respectively. The fluorescence intensity, photoluminescence intensity, was measured by a fluorescence spectrophotometer RF-5300PC that is available from Shimadzu Corporation. The measured results of the luminous organic compounds 1 to 9 and 11, the comparative compounds 1 to 3 and the metal complex intermediate 1 to 3 are indicated in Table 3. […] The relative value (2) of the fluorescence intensity indicates the value related to the fluorescence intensity of the metal complex intermediate 3 regarded as 1.00.

[2] = stood at room temperature overnight
Experimental: A method of measurement of the solubility is as follows. After the prescribed amount of the compound was added to each solvent, it was heated by water bath and irradiated supersonic wave for 1 hour. It was stood at room temperature overnight, and filtrated. Obtained residue was dried. Amount of insoluble residue was weighed, and solubility (w/v %) was determined.

SMILES	Relative Value of Fluorescence Intensity, Relative Value (1) (Related to Comparative Compound 3) [1]	Fluorescence Intensity [1]	center of Luminous Wave [1]	Relative Value of Fluorescence Intensity, Relative Value (2) (Related to Metal Complex Intermediate 3) [1]	Solubility, Ethanol [2]	Solubility, Ethyl Acetate [2]	Solubility, Methyl Ethyl Ketone [2]	Solubility, Toluene [2]	Solubility, Xylene [2]	Relative Value of Fluorescence Intensity, Relative Value (1) (Related to Comparative Compound 3) ([1]; comparative compound 3 regarded as 1.00)
CCCC[N+](C)(C)CCCC[N+](C)(C)CCCC.O=C(C=C([O-])C(F)(F)F)c1ccc2ccccc2c1.O=C(C=C([O-])C(F)(F)F)c1ccc2ccccc2c1.O=C(C=C([O-])C(F)(F)F)c1ccc2ccccc2c1.O=C(C=C([O-])C(F)(F)F)c1ccc2ccccc2c1.O=C(C=C([O-])C(F)(F)F)c1ccc2ccccc2c1.O=C(C=C([O-])C(F)(F)F)c1ccc2ccccc2c1.O=C(C=C([O-])C(F)(F)F)c1ccc2ccccc2c1.O=C(C=C([O-])C(F)(F)F)c1ccc2ccccc2c1.[Eu+3].[Eu+3] [Luminous Organic Compound 6]	1.51	758	(613 nm)	1.53	0.14 w/v %	over 10.0 w/v %	over 10.0 w/v %	3.86 w/v %	3.22 w/v %	
C[N+](C)(C)c1ccc(C(c2ccc([N+](C)(C)C)cc2)c2ccc([N+](C)(C)C)cc2)cc1.O=C(C=C([O-])C(F)(F)F)c1ccc2ccccc2c1.O=C(C=C([O-])C(F)(F)F)c1ccc2ccccc2c1.O=C(C=C([O-])C(F)(F)F)c1ccc2ccccc2c1.O=C(C=C([O-])C(F)(F)F)c1ccc2ccccc2c1.O=C(C=C([O-])C(F)(F)F)c1ccc2ccccc2c1.O=C(C=C([O-])C(F)(F)F)c1ccc2ccccc2c1.O=C(C=C([O-])C(F)(F)F)c1ccc2ccccc2c1.O=C(C=C([O-])C(F)(F)F)c1ccc2ccccc2c1.O=C(C=C([O-])C(F)(F)F)c1ccc2ccccc2c1.O=C(C=C([O-])C(F)(F)F)c1ccc2ccccc2c1.O=C(C=C([O-])C(F)(F)F)c1ccc2ccccc2c1.O=C(C=C([O-])C(F)(F)F)c1ccc2ccccc2c1.[Eu+3].[Eu+3].[Eu+3] [Luminous Organic Compound 7]		835	(613 nm)	1.69	0.16 w/v %	10.0 w/v %	over 10.0 w/v %	0.14 w/v %	0.16 w/v %	1.66
C[N+](C)(C)CCCC[N+](C)(C)C.O=C(C=C([O-])C(F)(F)F)c1cccs1.O=C(C=C([O-])C(F)(F)F)c1cccs1.O=C(C=C([O-])C(F)(F)F)c1cccs1.O=C(C=C([O-])C(F)(F)F)c1cccs1.O=C(C=C([O-])C(F)(F)F)c1cccs1.O=C(C=C([O-])C(F)(F)F)c1cccs1.O=C(C=C([O-])C(F)(F)F)c1cccs1.O=C(C=C([O-])C(F)(F)F)c1cccs1.[Eu+3].[Eu+3] [Luminous Organic Compound 8]	1.02	510	(613 nm)	1.03	0.15 w/v %	0.88 w/v %	over 10.0 w/v %	0.18 w/v %	0.10 w/v %	
C[N+](C)(C)CCCC[N+](C)(C)C.O=C(C=C([O-])C(F)(F)F)c1ccccc1.O=C(C=C([O-])C(F)(F)F)c1ccccc1.O=C(C=C([O-])C(F)(F)F)c1ccccc1.O=C(C=C([O-])C(F)(F)F)c1ccccc1.O=C(C=C([O-])C(F)(F)F)c1ccccc1.O=C(C=C([O-])C(F)(F)F)c1ccccc1.O=C(C=C([O-])C(F)(F)F)c1ccccc1.O=C(C=C([O-])C(F)(F)F)c1ccccc1.[Eu+3].[Eu+3] [Luminous Organic Compound 9]	1.00	502	(612 nm)	1.02	0.11 w/v %	3.55 w/v %	over 10.0 w/v %	0.30 w/v %	0.12 w/v %	
C[N+](C)(C)CCCC[N+](C)(C)C.O=C(C=C([O-])C(F)(F)F)c1ccc2ccccc2c1.O=C(C=C([O-])C(F)(F)F)c1ccc2ccccc2c1.O=C(C=C([O-])C(F)(F)F)c1ccc2ccccc2c1.O=C(C=C([O-])C(F)(F)F)c1ccc2ccccc2c1.O=C(C=C([O-])C(F)(F)F)c1ccc2ccccc2c1.O=C(C=C([O-])C(F)(F)F)c1ccc2ccccc2c1.O=C(C=C([O-])C(F)(F)F)c1ccc2ccccc2c1.O=C(C=C([O-])C(F)(F)F)c1ccc2ccccc2c1.[Al+3].[Al+3] [Luminous Organic Compound 11]	0.52	262	(455 nm)	0.53	0.21 w/v %	1.60 w/v %	over 10.0 w/v %	0.25 w/v %	0.10 w/v %	
